Data published in the NIST ThermoML archive (doi:10.1021/je060124c).

Conditions: Liquid, Capillary tube (Ostwald / Ubbelohde) method

O [water]
viscosity [mPa·s]
Conditions | 296.56 K | 337.85 K | 369.15 K | 398.75 K | 436.34 K | 482.43 K | 521.56 K | 580.74 K
10000 kPa | 0.9188 | 0.4362 | 0.296 | 0.2229 | 0.168 | 0.1308 | 0.1089 | 0.0838
30000 kPa | 0.9185 | 0.4437 | 0.3028 | 0.2295 | 0.1743 | 0.1341 | 0.1143 | 0.0953
